{"source": "ChEMBL document CHEMBL1132301", "about": "“Carbonic anhydrase inhibitors. Synthesis of water-soluble, topically effective, intraocular pressure-lowering aromatic/heterocyclic sulfonamides containing cationic or anionic moieties: is the tail more important than the ring?” (J Med Chem, 1999)", "key": {"Oryctolagus cuniculus [1]": {"organism": "Oryctolagus cuniculus", "type": "functional, Eye", "description": "In vivo fall of IOP of normotensive rabbits after treatment with 1 drop(50 microL) of 2% solution of CA inhibitor with pH value 5.9 into the eye at 0 min"}, "Oryctolagus cuniculus [2]": {"organism": "Oryctolagus cuniculus", "type": "functional, Eye", "remark": "listed apart in the source", "description": "In vivo fall of IOP of normotensive rabbits after treatment with 1 drop(50 microL) of 2% solution of CA inhibitor with pH value 5.9 into the eye at 30 min"}, "Oryctolagus cuniculus [3]": {"organism": "Oryctolagus cuniculus", "type": "functional, Eye", "remark": "listed apart in the source", "description": "In vivo fall of IOP of normotensive rabbits after treatment with 1 drop(50 microL) of 2% solution of CA inhibitor with pH value 5.9 into the eye at 90 min."}, "Oryctolagus cuniculus [4]": {"organism": "Oryctolagus cuniculus", "type": "functional, Eye", "remark": "listed apart in the source", "description": "In vivo fall of IOP of normotensive rabbits after treatment with 1 drop(50 microL) of 2% solution of CA inhibitor with pH value 5.9 into the eye at 60 min"}, "Oryctolagus cuniculus [5]": {"system": "Oryctolagus cuniculus", "test": "In vivo fall of IOP of normotensive rabbits after treatment with 1 drop(50 microL) of […]% solution of CA inhibitor with pH value 8.5 into the eye at 60 min", "type": "functional"}, "Carbonic anhydrase 4": {"molecular_target": "T1, Carbonic anhydrase 4 (Bos taurus, UniProt Q95323)", "T1 sequence (Q95323 whole entry)": "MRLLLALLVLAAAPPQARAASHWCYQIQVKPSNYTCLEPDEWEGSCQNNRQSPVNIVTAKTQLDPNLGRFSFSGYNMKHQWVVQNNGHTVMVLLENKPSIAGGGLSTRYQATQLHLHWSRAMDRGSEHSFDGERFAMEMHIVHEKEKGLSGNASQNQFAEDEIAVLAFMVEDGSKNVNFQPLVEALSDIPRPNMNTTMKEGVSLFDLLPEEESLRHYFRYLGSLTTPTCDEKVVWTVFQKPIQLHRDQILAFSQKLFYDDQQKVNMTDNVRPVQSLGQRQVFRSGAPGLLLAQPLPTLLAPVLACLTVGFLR", "description": "Inhibitory activity against bovine lung microsomes carbonic anhydrase isozyme IV (bCA IV)."}, "Oryctolagus cuniculus [6]": {"organism": "Oryctolagus cuniculus", "description": "Compound was tested in vitro for corneal permeability of compound across the Denuded epithelial cornea obtained from rabbit"}, "Oryctolagus cuniculus [7]": {"organism": "Oryctolagus cuniculus", "remark": "listed apart in the source", "description": "Compound was tested in vitro for corneal permeability of compound across the intact cornea obtained from rabbit"}, "Carbonic anhydrase 2": {"molecular_target": "Carbonic anhydrase 2 (Homo sapiens, UniProt P00918)", "description": "Inhibitory activity against human recombinant carbonic anhydrase II"}, "[8]": {"test": "Compound was tested for solubility in pH buffer, at 25 degree C.(As sodium hydroxylate salts)", "type": "ADME"}, "Carbonic anhydrase 1": {"molecular_target": "Carbonic anhydrase 1 (Homo sapiens, UniProt P00915)", "sequence (P00915 whole entry)": "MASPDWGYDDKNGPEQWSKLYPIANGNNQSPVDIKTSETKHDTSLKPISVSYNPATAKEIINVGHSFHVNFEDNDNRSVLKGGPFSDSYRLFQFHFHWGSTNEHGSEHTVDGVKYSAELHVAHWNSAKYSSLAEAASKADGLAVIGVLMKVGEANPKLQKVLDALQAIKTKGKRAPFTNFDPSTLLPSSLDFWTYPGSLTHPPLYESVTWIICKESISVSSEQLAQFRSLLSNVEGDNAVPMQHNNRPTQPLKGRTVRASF", "description": "Inhibitory activity against human cloned carbonic anhydrase isozyme I (hCA I, cytosolic form)."}, "[9]": {"test": "Compound was tested for solubility in pH buffer, at 25 degree C.(As hydrochloride salts)", "type": "ADME"}, "[10]": {"settings": "octanol/water", "description": "Partition coefficient (logD) (chloroform/buffer)"}, "Oryctolagus cuniculus [11]": {"organism": "Oryctolagus cuniculus", "type": "functional, Eye", "remark": "listed apart in the source", "description": "In vivo fall of IOP of normotensive rabbits after treatment with 1 drop(50 microL) of 2% solution of CA inhibitor with pH value 5.5 into the eye at 30 min"}, "Oryctolagus cuniculus [12]": {"organism": "Oryctolagus cuniculus", "type": "functional, Eye", "remark": "listed apart in the source", "description": "In vivo fall of IOP of Glaucomatous rabbits after treatment with 1 drop(50 microL) of 2% solution of CA inhibitor with pH value 5.5 into the eye at 90 min."}, "Oryctolagus cuniculus [13]": {"organism": "Oryctolagus cuniculus", "type": "functional, Eye", "remark": "listed apart in the source", "description": "In vivo fall of IOP of normotensive rabbits after treatment with 1 drop(50 microL) of 2% solution of CA inhibitor with pH value 5.5 into the eye at 60 min"}, "Oryctolagus cuniculus [14]": {"organism": "Oryctolagus cuniculus", "type": "functional, Eye", "remark": "listed apart in the source", "description": "In vivo fall of IOP of Glaucomatous rabbits after treatment with 1 drop(50 microL) of 2% solution of CA inhibitor with pH value 5.5 into the eye at 0 min"}, "Oryctolagus cuniculus [15]": {"organism": "Oryctolagus cuniculus", "type": "functional, Eye", "remark": "listed apart in the source", "description": "In vivo fall of IOP of Glaucomatous rabbits after treatment with 1 drop(50 microL) of 2% solution of CA inhibitor with pH value 5.5 into the eye at 30 min"}, "Oryctolagus cuniculus [16]": {"organism": "Oryctolagus cuniculus", "type": "functional, Eye", "remark": "listed apart in the source", "description": "In vivo fall of IOP of normotensive rabbits after treatment with 1 drop(50 microL) of 2% solution of CA inhibitor with pH value 5.5 into the eye at 90 min."}, "Oryctolagus cuniculus [17]": {"organism": "Oryctolagus cuniculus", "type": "functional, Eye", "remark": "listed apart in the source", "description": "In vivo fall of IOP of Glaucomatous rabbits after treatment with 1 drop(50 microL) of 2% solution of CA inhibitor with pH value 5.5 into the eye at 60 min"}}}
{"smiles": "NS(=O)(=O)c1nc2ccc(N3C(=O)c4cccnc4C3=O)cc2s1.O=S(=O)(O)C(F)(F)F", "values": [{"measurement": "Delta IOP", "setting": "Oryctolagus cuniculus [1]", "result": 0, "unit": "mmHg"}, {"measurement": "Delta IOP", "setting": "Oryctolagus cuniculus [2]", "result": 2, "unit": "mmHg"}, {"measurement": "Delta IOP", "setting": "Oryctolagus cuniculus [3]", "result": 4, "unit": "mmHg"}, {"measurement": "Delta IOP", "setting": "Oryctolagus cuniculus [4]", "result": 4.4, "unit": "mmHg"}]}
{"smiles": "NS(=O)(=O)c1ccc(NC(=O)c2cccc(C(=O)[O-])n2)c(F)c1.[Na+]", "values": [{"measurement": "pDelta IOP", "setting": "Oryctolagus cuniculus [5]", "result": 4.8, "unit": "mmHg"}]}
{"smiles": "CCN(C(=O)c1cccc(C(=O)O)n1)C1CC(C)S(=O)(=O)c2sc(S(N)(=O)=O)cc21", "note": "(stereo not given)", "values": [{"measurement": "Ki", "setting": "Carbonic anhydrase 4", "result": 17, "unit": "nM"}, {"measurement": "Kin", "setting": "Oryctolagus cuniculus [6]", "result": 5900, "unit": "h⁻¹"}, {"measurement": "Kin", "setting": "Oryctolagus cuniculus [7]", "result": 2800, "unit": "h⁻¹"}, {"measurement": "Ki", "setting": "Carbonic anhydrase 2", "result": 5, "unit": "nM"}, {"measurement": "solubility", "setting": "[8]", "result": 64, "unit": "mM"}, {"measurement": "Ki", "setting": "Carbonic anhydrase 1", "result": 400, "unit": "nM"}, {"measurement": "solubility", "setting": "[9]", "result": 58, "unit": "mM"}, {"measurement": "logD", "setting": "[10]", "result": 1.736}]}
{"smiles": "CCN(C(=O)c1cccc(C(=O)O)n1)C1CC(C)S(=O)(=O)c2sc(S(N)(=O)=O)cc21.Cl", "note": "(stereo not given)", "values": [{"measurement": "Delta IOP", "setting": "Oryctolagus cuniculus [11]", "result": 3.5, "unit": "mmHg"}, {"measurement": "Delta IOP", "setting": "Oryctolagus cuniculus [12]", "result": 12.1, "unit": "mmHg"}, {"measurement": "Delta IOP", "setting": "Oryctolagus cuniculus [13]", "result": 6.8, "unit": "mmHg"}, {"measurement": "Delta IOP", "setting": "Oryctolagus cuniculus [14]", "result": 0, "unit": "mmHg"}, {"measurement": "Delta IOP", "setting": "Oryctolagus cuniculus [15]", "result": 6.5, "unit": "mmHg"}, {"measurement": "Delta IOP", "setting": "Oryctolagus cuniculus [16]", "result": 9.1, "unit": "mmHg"}, {"measurement": "Delta IOP", "setting": "Oryctolagus cuniculus [17]", "result": 9.9, "unit": "mmHg"}]}
